One experiment deals with IKKε (Homo sapiens (Human), UniProt Q14164). Description: IKKε time-resolved fluorescence Lanthascreen kinase inhibition assay. The note with it: 20 μM ATP (apparent Km), 2 nM kinase, 1 hr; values are activity bands; read-out: Inhibition of IKKε IC50. Format: biochemical. As to the method: (§1) Compounds of the invention (synthesised as described below) were tested for activity against the IKKε and TBK-1 enzyme as follows:
(§2) Inhibitions studies were performed using a time-resolved fluorescence-based Lanthascreen™ assay. Phosphorylation of a fluorescein-labelled substrate peptide is measured using terbium-labeled phosphospecific antibodies. Terbium is excited at 340 nm and the FRET energy transfer to fluorescein is measured at 495 and 520 nm. The emission ratio between 520 and 495 is a measure of the level of phosphorylation of the substrate by the kinase.
(§3) Kinase inhibition assays (10 μL) were performed at 20° C. in 384-well plate format. Compound IC50 values were determined at the apparent Km for ATP (20 μM) based on a radiometric assay (Invitrogen) using 8 or 10 point curves in duplicate. The final reaction conditions contained 400 nM fluorescein-IkBα substrate ([…]), 20 μM ATP, 2 nM or 8 nM IKKε or TBK1 kinase respectively, and 3% DMSO in kinase assay buffer consisting of 50 mM HEPES (pH 7.5), 10 mM MgCl, 1 mM EGTA, 0.01% Brij-35.
(§4) Compound dilutions were prepared from 10 mM DMSO stocks by dilution into DMSO.
(§5) The kinase phosphorylation assay was initiated by the addition of the kinase and the reaction was allowed to proceed for 1 hr or 2.5 hr for IKKε and TBK-1 kinase respectively. […] The reaction was stopped by the addition of 10 mM EDTA, and phosphorylation was detected after a 1 hr incubation with 1.5 nM terbium-labelled antibody against phosphorylation at Serine 32 on the IkBα[…]peptide, both in TR-FRET dilution buffer (Invitrogen).
(§6) In the data presented for IKKε, <9 μM means having an activity in the range from 300 nM≦9 μM; and <300 nM means having an activity in the range 30 nM≦300 nM; and for the data presented for TBK-1, <3 μM means having an activity in the range 300 nM≦3 μM, and <300 nM means having an activity in the range 30 nM≦300 nM.
(TR-FRET usually uses a lanthanide donor and a delayed reading to cut background.)

A further experiment deals with TBK-1 (Homo sapiens (Human), UniProt Q9UHD2). Briefly: biochemical. To be noted: 20 μM ATP (apparent Km), 8 nM kinase, 2.5 hr; values are activity bands; read-out: Inhibition of TBK-1 IC50. The procedure: as §1, §2, §3, §4, §5, §6
Sequence of TBK-1 (Q9UHD2 whole entry): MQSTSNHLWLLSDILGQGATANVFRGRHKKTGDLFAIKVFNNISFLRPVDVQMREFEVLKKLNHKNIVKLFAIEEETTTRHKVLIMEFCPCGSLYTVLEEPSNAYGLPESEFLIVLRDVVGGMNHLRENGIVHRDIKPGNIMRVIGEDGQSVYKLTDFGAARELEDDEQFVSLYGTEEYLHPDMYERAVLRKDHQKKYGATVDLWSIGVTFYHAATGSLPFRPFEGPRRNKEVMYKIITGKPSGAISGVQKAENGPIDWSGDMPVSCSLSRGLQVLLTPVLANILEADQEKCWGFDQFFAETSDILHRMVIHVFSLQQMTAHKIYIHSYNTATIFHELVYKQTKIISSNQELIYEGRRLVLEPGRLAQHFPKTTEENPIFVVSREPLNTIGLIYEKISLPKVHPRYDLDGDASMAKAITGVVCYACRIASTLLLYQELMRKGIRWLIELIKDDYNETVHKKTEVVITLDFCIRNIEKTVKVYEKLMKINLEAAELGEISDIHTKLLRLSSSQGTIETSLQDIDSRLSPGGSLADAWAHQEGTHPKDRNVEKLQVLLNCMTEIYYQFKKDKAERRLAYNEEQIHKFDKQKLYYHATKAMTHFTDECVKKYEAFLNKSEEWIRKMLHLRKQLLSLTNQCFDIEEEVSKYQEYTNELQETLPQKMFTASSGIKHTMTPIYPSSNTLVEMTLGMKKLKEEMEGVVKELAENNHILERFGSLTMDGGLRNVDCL

These results are taken from patent publication US8962609B2, “Pyrimidine compounds as inhibitors of protein kinases IKK epsilon and/or TBK-1, processes for their preparation, and pharmaceutical compositions containing them” (Domainex Limited, priority 2010, dated 2015).

Some results are limits rather than exact numbers.

Sequence of IKKε (Q14164 whole entry): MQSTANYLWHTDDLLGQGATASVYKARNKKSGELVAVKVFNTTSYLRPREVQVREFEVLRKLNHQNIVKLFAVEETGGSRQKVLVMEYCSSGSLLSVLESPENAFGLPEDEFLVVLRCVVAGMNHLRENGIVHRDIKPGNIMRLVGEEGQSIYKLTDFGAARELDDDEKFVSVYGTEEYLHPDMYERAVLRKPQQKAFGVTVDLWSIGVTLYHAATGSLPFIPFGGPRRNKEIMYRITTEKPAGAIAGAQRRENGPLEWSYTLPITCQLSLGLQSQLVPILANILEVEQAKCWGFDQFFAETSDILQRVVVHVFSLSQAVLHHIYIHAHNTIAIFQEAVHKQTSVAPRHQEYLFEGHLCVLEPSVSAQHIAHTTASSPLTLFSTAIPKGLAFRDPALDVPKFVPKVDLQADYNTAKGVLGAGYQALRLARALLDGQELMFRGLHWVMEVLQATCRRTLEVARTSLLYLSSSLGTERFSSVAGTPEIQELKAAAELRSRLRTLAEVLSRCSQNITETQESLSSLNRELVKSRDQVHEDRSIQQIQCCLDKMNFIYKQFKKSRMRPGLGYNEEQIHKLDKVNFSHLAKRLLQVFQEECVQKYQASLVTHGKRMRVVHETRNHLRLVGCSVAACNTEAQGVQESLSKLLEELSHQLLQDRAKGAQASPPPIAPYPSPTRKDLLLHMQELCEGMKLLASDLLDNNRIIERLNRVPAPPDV

For orientation: IC50 means the concentration at which inhibition is half-maximal. Regarding `Cc1cc(C(N)=O)ccc1Nc1nccc(-c2ccc(N3CCCC3)c(C#N)c2)n1` [DMX-21], the IC50 at IKKε and at TBK-1 was 30 to 300 nM throughout.
For `Cn1nccc1Nc1nccc(-c2ccc(N3CCCC3)c(C#N)c2)n1` [DMX-27], the IC50 was 30 to 300 nM at IKKε and less than 30 nM at TBK-1.
Turning to `CO[C@H]1CCN(c2ccc(-c3ccnc(Nc4ccc(NC(C)=O)nc4)n3)cc2C#N)C1` [DMX-76], the IC50 at IKKε and on TBK-1 was less than 30 nM in each case.
In the case of `CN(C)CCOc1ccc(Nc2nccc(-c3ccc(N4CCCC4)c(C#N)c3)n2)cn1` [DMX-61], the IC50 on IKKε and on TBK-1 was less than 30 nM in each case.
Take `Cn1nc(C(N)=O)cc1Nc1nccc(-c2ccc(N3CCCC3)c(C#N)c2)n1` [DMX-41]: the IC50 on IKKε was 30 to 300 nM.
Still for that read-out and setting: to `N#Cc1cc(-c2ccnc(Nc3cccnc3)n2)ccc1N1CCCC1` [DMX-18] belongs less than 30 nM.
On the same count and under the same terms, to `N#Cc1cc(-c2ccnc(Nc3cccc(F)c3)n2)ccc1N1CCCC1` [DMX-3] belongs 30 to 300 nM.
With `CC(=O)Nc1cccc(Nc2nccc(-c3ccc(N4CCCC4)c(C#N)c3)n2)c1` [DMX-7], the IC50 at IKKε and at TBK-1 was less than 30 nM throughout.
With `Cn1cncc1Nc1nccc(-c2ccc(N3CCCC3)c(C#N)c2)n1` [DMX-60], the IC50 on IKKε and on TBK-1 was 30 to 300 nM in each case.
For the molecule `N#Cc1cc(-c2ccnc(Nc3nc(C(N)=O)co3)n2)ccc1N1CCCC1` [DMX-39], the IC50 at IKKε lay within 300 to 9000 nM.
With `CN1CCC(Nc2ccc(Nc3nccc(-c4ccc(N5CC[C@H](F)C5)c(C#N)c4)n3)cn2)CC1` [DMX-78], the IC50 on IKKε and on TBK-1 was less than 30 nM in each case.
As for `CN(C)CCNc1ccc(Nc2nccc(-c3ccc(N4CC[C@H](O)C4)c(C#N)c3)n2)cn1` [DMX-62], the IC50 on IKKε and on TBK-1 was less than 30 nM in each case.
For `CN(C)c1ccc(Nc2nccc(-c3ccc(N4CCCC4)c(C#N)c3)n2)cn1` [DMX-20], the IC50 on IKKε and on TBK-1 was less than 30 nM throughout.
With `CN(C)CCNc1ccc(Nc2nccc(-c3ccc(N4CCC(O)CC4)c(C#N)c3)n2)cn1` [DMX-65], the IC50 at IKKε and on TBK-1 was 30 to 300 nM throughout.
Turning to `Cc1cc(Nc2nccc(-c3ccc(N4CCCC4)c(C#N)c3)n2)no1` [DMX-25], the IC50 at IKKε lay in the range of 300 to 9000 nM.
Consider `N#Cc1cc(-c2ccnc(Nc3ccc4c(c3)NC(=O)CC4)n2)ccc1N1CCCC1` [DMX-17], for which the IC50 at IKKε and on TBK-1 was less than 30 nM throughout.
For `CC(=O)Nc1ccc(Nc2nccc(-c3ccc(N4CC[C@@H](O)C4)c(C#N)c3)n2)cn1` [DMX-73], the IC50 at IKKε and on TBK-1 was less than 30 nM each time.
In the case of `Cc1csc(Nc2nccc(-c3ccc(N4CCCC4)c(C#N)c3)n2)n1` [DMX-32], the IC50 at IKKε was in the range of 300 to 9000 nM.
On the same count and under the same terms, the same measure for `CN1CCN(C(=O)c2cccc(Nc3nccc(-c4ccc(N5CCCC5)c(C#N)c4)n3)c2)CC1` [DMX-43]: less than 30 nM.
For the molecule `CN(C)CC(=O)Nc1ccc(Nc2nccc(-c3ccc(N4CCCC4)c(C#N)c3)n2)cn1` [DMX-49], the half-inhibitory concentration (IC50) at IKKε and at TBK-1 was less than 30 nM throughout.
Consider `Cn1cc(Nc2nccc(-c3ccc(N4CC[C@H](O)C4)c(C#N)c3)n2)cn1` [DMX-74], for which the IC50 on IKKε and at TBK-1 was less than 30 nM throughout.
As to `CN(C)CCNC(=O)c1cccc(Nc2nccc(-c3ccc(N4CCCC4)c(C#N)c3)n2)c1` [DMX-45], the IC50 at IKKε was less than 30 nM.
On the same count and under the same terms, to `N#Cc1cc(-c2ccnc(Nc3cccc(C(=O)O)c3)n2)ccc1N1CCCC1` [DMX-42] belongs less than 30 nM.
On to `CN1CCC(Nc2ccc(Nc3nccc(-c4ccc(N5CCC(F)(F)C5)c(C#N)c4)n3)cn2)CC1` [DMX-80], for which the IC50 at IKKε and at TBK-1 was less than 30 nM throughout.
For `N#Cc1cc(-c2ccnc(Nc3ccc(F)cc3)n2)ccc1N1CCCC1` [DMX-4], the IC50 at IKKε lay within 30 to 300 nM.
Take `CC(=O)Nc1ccc(Nc2nccc(-c3ccc(N4CCC[C@H]4C(N)=O)c(C#N)c3)n2)cn1` [DMX-70]: the IC50 at IKKε and on TBK-1 was 30 to 300 nM throughout.
With `COC[C@H]1CCCN1c1ccc(-c2ccnc(Nc3ccc(NC(C)=O)nc3)n2)cc1C#N` [DMX-71], the IC50 at IKKε and on TBK-1 was less than 30 nM each time.
Turning to `Cn1nccc1Nc1nccc(-c2ccc(N3CCC[C@@H]3C(N)=O)c(C#N)c2)n1` [DMX-53], the figures for the IC50 at IKKε and on TBK-1 were 30 to 300 nM and 300 to 3000 nM, respectively.
For `CN1CCN(c2ccc(Nc3nccc(-c4ccc(N5CCC[C@@H]5C(N)=O)c(C#N)c4)n3)cn2)CC1` [DMX-55], in that order: less than 30 nM and less than 30 nM.
For `COc1cccc(Nc2nccc(-c3ccc(N4CCCC4)c(C#N)c3)n2)c1` [DMX-5], the IC50 at IKKε is less than 30 nM.
For the molecule `CN(C)CCNc1ccc(Nc2nccc(-c3ccc(N4CCCC4)c(C#N)c3)n2)cn1` [DMX-33], the IC50 at IKKε and on TBK-1 was less than 30 nM in each case.
Take `CN(C)CCN(C)c1ccc(Nc2nccc(-c3ccc(N4CCCC4)c(C#N)c3)n2)cn1` [DMX-34]: the IC50 at IKKε and on TBK-1 was less than 30 nM each time.
In the case of `CN1CCC(Nc2ccc(Nc3nccc(-c4ccc(N5CC[C@H](O)C5)c(C#N)c4)n3)cn2)CC1` [DMX-79], the IC50 at IKKε and at TBK-1 was less than 30 nM throughout.
As for `N#Cc1cc(-c2ccnc(Nc3ccccn3)n2)ccc1N1CCCC1` [DMX-13], at IKKε, the IC50 fell in the range of 300 to 9000 nM.
For `Cn1ccc(Nc2nccc(-c3ccc(N4CCCC4)c(C#N)c3)n2)n1` [DMX-29], the IC50 at IKKε and on TBK-1 was 30 to 300 nM in each case.
Turning to `N#Cc1cc(-c2ccnc(Nc3ccncc3)n2)ccc1N1CCCC1` [DMX-12], the IC50 at IKKε is 300 to 9000 nM.
For `CNC(=O)[C@H]1CCCN1c1ccc(-c2ccnc(Nc3ccc(NC(C)=O)nc3)n2)cc1C#N` [DMX-67], the figures for the IC50 at IKKε and on TBK-1 were 300 to 9000 nM and less than 9000 nM, respectively.
For `CC(=O)Nc1ccc(Nc2nccc(-c3ccc(N4CCC[C@@H]4C(N)=O)c(C#N)c3)n2)cn1` [DMX-51], the IC50 at IKKε and at TBK-1 was 30 to 300 nM each time.
`CN1CCN(c2ccc(Nc3nccc(-c4ccc(N5CCCC5)c(C#N)c4)n3)cn2)CC1` [DMX-19]: the IC50 at IKKε and on TBK-1 was less than 30 nM throughout.
Regarding `CN(C)CCNc1ccc(Nc2nccc(-c3ccc(N4CCC[C@@H]4C(N)=O)c(C#N)c3)n2)cn1` [DMX-72], the IC50 on IKKε and at TBK-1 was 30 to 300 nM each time.
Regarding `CS(=O)(=O)c1cccc(Nc2nccc(-c3ccc(N4CCCC4)c(C#N)c3)n2)c1` [DMX-10], the IC50 on IKKε and at TBK-1 was less than 30 nM each time.
As for `Cn1nccc1Nc1nccc(-c2ccc(N3CC[C@H](O)C3)c(C#N)c2)n1` [DMX-52], the IC50 at IKKε and at TBK-1 was 30 to 300 nM each time.
On to `C[C@H]1CCCN1c1ccc(-c2ccnc(Nc3ccc(NCCN(C)C)nc3)n2)cc1C#N` [DMX-63], for which the IC50 at IKKε and on TBK-1 was less than 30 nM in each case.
Take `Cc1cnc(Nc2nccc(-c3ccc(N4CCCC4)c(C#N)c3)n2)s1` [DMX-30]: the IC50 on IKKε was 300 to 9000 nM.
With `Cn1cnc(Nc2nccc(-c3ccc(N4CCCC4)c(C#N)c3)n2)c1` [DMX-57], the half-inhibitory concentration (IC50) on IKKε and at TBK-1 was 30 to 300 nM throughout.
Regarding `CNC(=O)C1CCN(c2ccc(-c3ccnc(Nc4ccc(NC(C)=O)nc4)n3)cc2C#N)CC1` [DMX-68], the IC50 at IKKε and at TBK-1 was 30 to 300 nM each time.
Turning to `COc1ccc(Nc2nccc(-c3ccc(N4CCCC4)c(C#N)c3)n2)cc1` [DMX-6], on IKKε, the IC50 is less than 30 nM.
For `N#Cc1cc(-c2ccnc(Nc3cccc(NC(=O)N4CCCC4)c3)n2)ccc1N1CCCC1` [DMX-22, Pyrrolidine-1-carboxylic acid {3-[4-(3-cyano-4-pyrrolidin-1-yl-phenyl)-pyrimidin-2-ylamino]-phenyl}-amide], the IC50 on IKKε and at TBK-1 was less than 30 nM in each case.
For the molecule `N#Cc1cc(-c2ccnc(Nc3ncc(C(N)=O)o3)n2)ccc1N1CCCC1` [DMX-38], at IKKε, the IC50 was in the range of 300 to 9000 nM.
Take `CC(=O)Nc1ccc(Nc2nccc(-c3ccc(N4CCCC4)c(C#N)c3)n2)cn1` [DMX-15]: the IC50 on IKKε and at TBK-1 was less than 30 nM in each case.
For the molecule `Cn1cc(Nc2nccc(-c3ccc(N4CCC(C(N)=O)CC4)c(C#N)c3)n2)cn1` [DMX-75], the figures for the IC50 at IKKε and on TBK-1 were less than 30 nM and 30 to 300 nM, respectively.
With `CN1CCC(NC(=O)c2cccc(Nc3nccc(-c4ccc(N5CCCC5)c(C#N)c4)n3)c2)CC1` [DMX-44], the IC50 on IKKε was less than 30 nM.
Regarding `Cn1nc(Nc2nccc(-c3ccc(N4CCCC4)c(C#N)c3)n2)cc1C(N)=O` [DMX-40], the IC50 on IKKε was in the range of 30 to 300 nM.
As to `N#Cc1cc(-c2ccnc(Nc3ccccc3)n2)ccc1N1CCCC1` [DMX-11], the half-maximal inhibitory concentration (IC50) on IKKε lay in the range of 300 to 9000 nM.
Regarding `N#Cc1cc(-c2ccnc(Nc3cccc(C(F)(F)F)c3)n2)ccc1N1CCCC1` [DMX-2], at IKKε, the IC50 lay in the range of 300 to 9000 nM.
